Experimental data as given in US20240207240A1, “Method for Improving or Treating Cognitive Dysfunction Complicating HIV-associated Cryptococcal Meningitis with Lenalidomide” (The First Affiliated Hospital Zhejiang University School of …, priority 2022, published 2024).
“And” between values parts separate entries of the source, which are not always exact repeats. Equal entries are not always repeated. Where two headings read alike, the source gives them in different places.

Assays:
[1] = system: patients with cognitive dysfunction caused by HIV-associated CM-IRIS; format: in vivo, human; conditions: for ΔMoCA: week 24 - week 0, median
[2] = system: CSF cytokines; assay: Detection of inflammatory cytokines in CSF (Human Cytokine/Chemokine/Growth Factor Panel A); format: in vivo; conditions: for CSF Apo. E / CSF CFH / CSF Complement C3 / CSF FGF-2 / CSF G-CSF / CSF GM-CSF / CSF GRO / CSF IFN-γ / CSF IL-1α / CSF IL-1β / CSF IL-2 / CSF IL-3 / CSF IL-4 / CSF IL-6 / CSF IL-8 / CSF IL-10 / CSF IL-12p40 / CSF IL-12p70 / CSF IL-13 / CSF IL-17α / CSF IP-10 / CSF MCP-1 / CSF MIP-1α / CSF MIP-1β / CSF PDGF-AA / CSF TNF-α / CSF apoA-I / CSF pTau 181 / CSF sCD40L / CSF tTau / CSF α-2-M / CSF αβ42: W 24, after 6 cycles lenalidomide
Method: Detection of inflammatory cytokines in CSF: CSF samples were collected from the participants and centrifuged immediately; and the supernatant was stored at −80° C. until testing. 32 CSF cytokines were analyzed using the Human Cytokine/Chemokine/Growth Factor Panel A (Merck Millipore, St. Louis, USA): α-2-macroglobulin (α-2-M), apolipoprotein A-I (apoA-I), Apo-E, complement C3, complement factor H (CFH), fibroblast growth factor 2 (FGF-2), granulocyte-colony stimulating factor (G-CSF), granulocyte-macrophage colony-stimulating factor (GM-CSF), interferon-γ (IFN-γ), growth-regulated oncogene (GRO), soluble CD40 ligand (sCD40L), platelet-derived growth factor-AA (PDGF-AA), interleukin (IL)-12p40, IL-12p70, IL-13, IL-1α, IL-1β, IL-2, IL-3, IL-4, IL-6, IL-8, IL-10, IL-17α, monocyte chemoattractant protein-1 (MCP-1), macrophage inflammatory protein-la (MIP-la), MIP-1β, tumor necrosis factor-a (TNF-α), IL-17α, amyloid-β (1-42) (αβ42), total Tau (tTau) and phosphorylated Tau 181 (pTau181), The abbreviations of CSF cytokines are provided in Table 3.

[3] = in vivo; cited from earlier work
[4] = system: patients with cognitive dysfunction caused by HIV-associated CM-IRIS; format: in vivo, human; conditions: for ΔIHDS: week 24 - week 0, median
[5] = system: TNF-α; conditions: cited from earlier work
[6] = system: patients with cognitive dysfunction caused by HIV-associated CM-IRIS; assay: overall cognitive status by MoCA and IHDS scales; format: in vivo, human; conditions: of 7 patients treated with lenalidomide
Method: FIGS. 2A and 2B show results of treating patients with HIV-associated CM who still develop cognitive dysfunction after completing the anti-cryptococcal induction treatment. The patients are treated with lenalidomide. In the treatment, lenalidomide is administered at 25 mg/day for immuno-modulation for a total of 6 treatment cycles, with each cycle including 21 days of lenalidomide administration followed by 7 days of no lenalidomide. The patients are further assigned to a cognitive improvement group and a cognitive non-improvement group. […] FIG. 2A compares CSF biochemistry in the cognitive improvement group and cognitive non-improvement group before and after treatment.
Definition of cognitive dysfunction: The Chinese version of the Montreal Cognitive Assessment (MoCA) shown in Table 1, International HIV Dementia Scale (IHDS) shown in Table 2, and Center for Epidemiological Research Depression Scale (CES-D) are used to assess patients' cognitive status. They all use Chinese questionnaires that have been validated for the evaluation of Chinese patients. The MoCA tests eight major neurocognitive domains, including short-term memory recall (no score), visuospatial ability, naming, attention, language, conceptual thinking, working memory, and orientation of time and place. […]

[7] = individual Patients 1-4 (cognitive improvement group)
[8] = individual Patients 5-7 (cognitive non-improvement group)
[9] = individual patients P1-P4 (cognitive improvement group)
[10] = individual patients P5-P7 (cognitive non-improvement group)

## Nc1cccc2c1CN(C1CCC(=O)NC1=O)C2=O (stereo not shown) [lenalidomide]
[1]; W24, after 6 cycles lenalidomide 25 mg/day (21 days on, 7 off), 7 patients, baseline 23.0 (13.0-24.0), P=0.018
  median MoCA score: 26.0 (24.0-28.0)
[1]; W24, baseline 1.0 (0-3.0), P=0.026
  memory score in the MoCA: 4.0 (3.0-5.0)
[1]; [7]
  MoCA-W 24: 30 scores and 26 scores (2×) and 28 scores
[1]; [8]
  MoCA-W 24: 24 scores and 25 scores and 19 scores
[1]; CI group
  ΔMoCA: 8.5 scores
[1]; CNI group
  ΔMoCA: 1.0 scores
[2]; CI group, P<0.001
  change in CSF G-CSF level after treatment: significant decline
  change in CSF GRO level after treatment: significant decline
  change in CSF IL-6 level after treatment: significant decline
  change in CSF IL-8 level after treatment: significant decline
  change in CSF IL-10 level after treatment: significant decline
[2]; CI group, P=0.002
  change in CSF CFH level after treatment: significant decline
  change in CSF TNF-α level after treatment: significant decline
[2]; CI group, P=0.003
  change in CSF α-2-M level after treatment: significant decline
[2]; CNI group, P=0.030
  change in CSF tTau level after treatment: increased significantly
[2]; [9]
  CSF Apo. E: 5683 pg/mL and 1764 pg/mL and 2487 pg/mL and 1873 pg/mL
  CSF CFH: 4617 pg/mL and 2381 pg/mL and 2275 pg/mL and 1603 pg/mL
  CSF Complement C3: 10475 pg/mL and 4010 pg/mL and 818.22 pg/mL and 1909 pg/mL
  CSF FGF-2: 16.08 pg/mL
  CSF G-CSF: 22.02 pg/mL and 3.57 pg/mL (2×) and 5.99 pg/mL
  CSF GM-CSF: 0.98 pg/mL and 1.02 pg/mL and 1.94 pg/mL and 2.81 pg/mL
  CSF GRO: 111.65 pg/mL and 63.2 pg/mL and 32 pg/mL and 149.74 pg/mL
  CSF IFN-γ: 1.31 pg/mL and 0.7 pg/mL and 0.66 pg/mL and 1.6 pg/mL
  CSF IL-1α: 1.91 pg/mL and 1.71 pg/mL and 1.65 pg/mL and 1.37 pg/mL
  CSF IL-1β: 1.15 pg/mL and 1.09 pg/mL and 0.88 pg/mL and 1.11 pg/mL
  CSF IL-2: 0.72 pg/mL and 0.69 pg/mL and 0.64 pg/mL and 0.81 pg/mL
  CSF IL-3: 0.41 pg/mL and 0.44 pg/mL and 0.43 pg/mL and 0.34 pg/mL
  CSF IL-4: 1.49 pg/mL and 2.22 pg/mL and 0.82 pg/mL (2×)
  CSF IL-6: 12.8 pg/mL and 63.58 pg/mL and 2.85 pg/mL (2×)
  CSF IL-8: 175.42 pg/mL and 164.92 pg/mL and 64.25 pg/mL and 118.93 pg/mL
  CSF IL-10: 4.21 pg/mL and 4.14 pg/mL and 2.45 pg/mL and 4.07 pg/mL
  CSF IL-12p40: 1.78 pg/mL and 0.38 pg/mL and 0.92 pg/mL and 10.92 pg/mL
  CSF IL-12p70: 2.46 pg/mL and 0.67 pg/mL and 2.09 pg/mL and 1.34 pg/mL
  CSF IL-13: 1.19 pg/mL and 0.8 pg/mL and 0.71 pg/mL and 1.09 pg/mL
  CSF IL-17α: 0.62 pg/mL
  CSF IP-10: 12150 pg/mL and 4404 pg/mL and 3063 pg/mL and 12231 pg/mL
  CSF MCP-1: 1624 pg/mL and 2268 pg/mL and 987.31 pg/mL and 923.8 pg/mL
  CSF MIP-1α: 4.61 pg/mL and 18.47 pg/mL and 3.38 pg/mL (2×)
  CSF MIP-1β: 23.79 pg/mL and 31.7 pg/mL and 9.58 pg/mL and 5.86 pg/mL
  CSF PDGF-AA: 5.66 pg/mL and 6.92 pg/mL and 2.78 pg/mL (2×)
  CSF TNF-α: 7.46 pg/mL and 6.82 pg/mL and 2.46 pg/mL and 8.22 pg/mL
  CSF apoA-I: 6850 pg/mL and 683.32 pg/mL and 668.25 pg/mL and 788.79 pg/mL
  CSF pTau 181: 61.43 pg/mL and 38.37 pg/mL and 42.96 pg/mL and 19.12 pg/mL
  CSF sCD40L: 2.49 pg/mL (3×) and 4.91 pg/mL
  CSF tTau: 1594 pg/mL and 431.47 pg/mL and 752.55 pg/mL and 234.58 pg/mL
  CSF α-2-M: 10777 pg/mL and 4765 pg/mL and 3814 pg/mL and 2942 pg/mL
  CSF αβ42: 2364 pg/mL and 708.02 pg/mL and 1573 pg/mL and 693.92 pg/mL
[2]; [10]
  CSF Apo. E: 5462 pg/mL and 2829 pg/mL and 2633 pg/mL
  CSF CFH: 3699 pg/mL and 1253 pg/mL and 2446 pg/mL
  CSF Complement C3: 4249 pg/mL and 2914 pg/mL and 1335 pg/mL
  CSF FGF-2: 13.73 pg/mL and 48.91 pg/mL
  CSF G-CSF: 2.84 pg/mL
  CSF GM-CSF: 2.58 pg/mL and 1.29 pg/mL (2×)
  CSF GRO: 117.5 pg/mL and 44.05 pg/mL and 73.45 pg/mL
  CSF IFN-γ: 1.67 pg/mL and 1.01 pg/mL and 0.66 pg/mL
  CSF IL-1α: 3.37 pg/mL and 1.95 pg/mL and 1.42 pg/mL
  CSF IL-1β: 2.16 pg/mL and 1.03 pg/mL and 1.13 pg/mL
  CSF IL-2: 1.44 pg/mL and 0.7 pg/mL and 0.74 pg/mL
  CSF IL-3: 0.82 pg/mL and 0.52 pg/mL and 0.3 pg/mL
  CSF IL-4: 2.71 pg/mL and 2.22 pg/mL and 0.49 pg/mL
  CSF IL-6: 2.85 pg/mL
  CSF IL-8: 234.05 pg/mL and 62.23 pg/mL and 171.82 pg/mL
  CSF IL-10: 2.45 pg/mL and 3.7 pg/mL
  CSF IL-12p40: 1.65 pg/mL and 1.13 pg/mL and 0.52 pg/mL
  CSF IL-12p70: 2.69 pg/mL and 1.25 pg/mL and 1.44 pg/mL
  CSF IL-13: 1.91 pg/mL and 0.99 pg/mL and 0.92 pg/mL
  CSF IL-17α: 1.13 pg/mL and 0.62 pg/mL
  CSF IP-10: 13221 pg/mL and 3398 pg/mL and 9823 pg/mL
  CSF MCP-1: 3992.12 pg/mL and 981.12 pg/mL and 3011 pg/mL
  CSF MIP-1α: 3.38 pg/mL and 5 pg/mL
  CSF MIP-1β: 31.83 pg/mL and 13.92 pg/mL and 17.91 pg/mL
  CSF PDGF-AA: 6.89 pg/mL and 2.9 pg/mL and 3.99 pg/mL
  CSF TNF-α: 8.22 pg/mL and 3.01 pg/mL and 5.21 pg/mL
  CSF apoA-I: 2047.9 pg/mL and 833.9 pg/mL and 1214 pg/mL
  CSF pTau 181: 85.14 pg/mL and 48.8 pg/mL and 36.34 pg/mL
  CSF sCD40L: 2.49 pg/mL
  CSF tTau: 1309.82 pg/mL and 681.32 pg/mL and 628.5 pg/mL
  CSF α-2-M: 7109 pg/mL and 2778 pg/mL and 4331 pg/mL
  CSF αβ42: 2453 pg/mL and 1168 pg/mL and 1285 pg/mL
[3]
  side effects: milder than those of thalidomide
[4]; W24, after 6 cycles lenalidomide, 7 patients, baseline 9.0 (2.5-10.5), P=0.028
  median IHDS score: 11.0 (10.0-12.0)
[4]; W24, baseline 1.5 (1.0-3.5), P=0.042
  recall of the four items in the IHDS: 4.0 (2.0-4.0)
[4]; [7]
  IHDS-W 24: 10 scores (2×) and 11 scores and 12 scores
[4]; [8]
  IHDS-W 24: 12 scores (2×) and 10 scores
[4]; CI group
  ΔIHDS: 5.25 scores
[4]; CNI group
  ΔIHDS: 1.5 scores
[5]
  inhibitory effect on TNF-α relative to thalidomide: 2000 times
[6]
  patients whose cognitive status returned to normal: 4 patients
